Assay results as given in ChEMBL document CHEMBL1155994, “NO-NSAIDs: Gastric-sparing nitric oxide-releasable prodrugs of non-steroidal anti-inflammatory drugs” (Bioorg Med Chem Lett, 2009).
Each block holds one compound with its values, some of them ahead of it. Active and inactive are the calls of the source. The calls are words filed in the database; no cut-off is given here.

What was measured:
Rattus norvegicus [1] = experiment: Antiinflammatory activity against carrageenan-induced paw edema in rat at dose equimolar to 10 mg/kg aspirin, po administered 1 hr before carrageenan challenge measured after 6 hrs by plethysmometer; format: functional
Rattus norvegicus [2] = experiment: Effect on nitric oxide release in rat assessed as plasma nitrate/nitrite concentration at dose equimolar to 10 mg/kg of diclofenac, po by Griess method; format: functional, organism-based; design: dose 10 mg/kg
Rattus norvegicus [3] = experiment: Gastrointestinal toxicity in rat assessed as ulcerogenic index at dose equimolar to 100 mg/kg of aspirin, po after 3 hrs; format: organism-based; design: dose 100 mg/kg, route oral; settings: in vivo
Rattus norvegicus [4] = experiment: AUC in rat at po dose of equimolar to aspirin; format: ADME, organism-based, Plasma; settings: in vivo
Rattus norvegicus [5] = experiment: Gastrointestinal toxicity in rat assessed as ulcerogenic index at dose equimolar to 100 mg/kg of diclofenac, po after 5 hrs; format: organism-based; design: dose 100 mg/kg, route oral; settings: in vivo
Rattus norvegicus [6] = experiment: Antiinflammatory activity against carrageenan-induced paw edema in rat at dose equimolar to 150 mg/kg aspirin, po administered 1 hr before carrageenan challenge measured after 4 hrs by plethysmometer; format: functional; settings: at 150 mg/kg
Rattus norvegicus [7] = experiment: Antiinflammatory activity against carrageenan-induced paw edema in rat at dose equimolar to 150 mg/kg aspirin, po administered 1 hr before carrageenan challenge measured after 6 hrs by plethysmometer; format: functional
Rattus norvegicus [8] = experiment: Antiinflammatory activity against carrageenan-induced paw edema in rat at 150 mg/kg, po administered 1 hr before carrageenan challenge measured after 6 hrs by plethysmometer; format: functional
Rattus norvegicus [9] = experiment: Gastrointestinal toxicity in rat assessed as ulcerogenic index at 100 mg/kg, po after 5 hrs; format: organism-based; design: dose 100 mg/kg, route oral; settings: in vivo
Rattus norvegicus [10] = experiment: Antiinflammatory activity against carrageenan-induced paw edema in rat at 150 mg/kg, po administered 1 hr before carrageenan challenge measured after 4 hrs by plethysmometer; format: functional
Rattus norvegicus [11] = experiment: AUC in rat at 35 mg/kg, po; format: ADME, organism-based, Plasma; design: dose 35 mg/kg, route oral; settings: in vivo
[12] = AUC in rat at 150 mg/kg, po; format: ADME, organism-based; design: dose 150 mg/kg, route oral; settings: plasma
Rattus norvegicus [13] = experiment: Gastrointestinal toxicity in rat assessed as ulcerogenic index at 100 mg/kg, po after 3 hrs; format: organism-based; design: dose 100 mg/kg, route oral; settings: in vivo
Rattus norvegicus [14] = experiment: Antiinflammatory activity against carrageenan-induced paw edema in rat at 10 mg/kg, po administered 1 hr before carrageenan challenge measured after 4 hrs by plethysmometer; format: functional
Rattus norvegicus [15] = experiment: Antiinflammatory activity against carrageenan-induced paw edema in rat at 10 mg/kg, po administered 1 hr before carrageenan challenge measured after 6 hrs by plethysmometer; format: functional
[16] = AUC in rat at 10 mg/kg, po; format: ADME, organism-based; design: dose 10 mg/kg, route oral; settings: plasma

SMILES: O=C(COC(=O)Cc1ccccc1Nc1c(Cl)cccc1Cl)OCCSSCCO[N+](=O)[O-]
Activity (Rattus norvegicus [1]): inactive

SMILES: O=C(Cc1ccccc1Nc1c(Cl)cccc1Cl)OCCSSCCO[N+](=O)[O-]
Activity (Rattus norvegicus [2]): Active
UI (Rattus norvegicus [3]): 0 mm2

SMILES: CC(=O)Oc1ccccc1C(=O)OCC(=O)OCCSSCCO[N+](=O)[O-]
inhibition (Rattus norvegicus [6]): inactive
Activity (Rattus norvegicus [7]): inactive

The next lines start with results.

AUC (Rattus norvegicus [4]): 749 ug/hr.ml
SMILES: CC(=O)Oc1ccccc1C(=O)OCCSSCCO[N+](=O)[O-]
UI (Rattus norvegicus [5]): 0 mm2

AUC (Rattus norvegicus [11]): 909 ug/hr.ml
AUC [12]: 4050 µg·h/mL
SMILES: CC(=O)Oc1ccccc1C(=O)O [ASPIRIN]
inhibition in vivo at 150 mg/kg (Rattus norvegicus [8]): 31%
UI (Rattus norvegicus [9]): 99 mm2
inhibition in vivo at 150 mg/kg (Rattus norvegicus [10]): 30%

AUC [16]: 65 µg·h/mL
SMILES: O=C(O)Cc1ccccc1Nc1c(Cl)cccc1Cl [DICLOFENAC]
UI (Rattus norvegicus [13]): 108 mm2
Activity (Rattus norvegicus [14]): 55%
inhibition in vivo at 10 mg/kg (Rattus norvegicus [15]): 21%
